{"source": "patent US8394355B2", "about": "“Use of UTP for the diagnosis of stenoses and other conditions of restricted blood flow” (P2 science Aps, priority 2009, dated 2013)", "key": {"[1]": {"assay": "Kinetics of UTP in the circulation", "type": "in vivo", "conditions": "for half-life: in the circulation, read-out: terminal half-life (converted)"}, "[2]": {"test_system": "infarct area during acute myocardial infarction", "assay": "ADP or UTP infusion during myocardial infarction in pigs (unpublished)", "type": "in vivo", "conditions": "infused during acute myocardial infarction, unpublished results", "excerpt": "This is clearly in contrast to previous findings, but is more clinically relevant as most cardiac patients are older. […] This conclusion is also supported by another study by the present inventor in pigs where ADP or UTP was infused during myocardial infarction. […] Therefore, the previous assumptions in patent application WO 2007/065437 relating to the regulation of purinergic receptor activity to modulate vascular tone, particularly for treating hemodynamic conditions by overriding vasoconstriction activity, which could potentially have clinical applications for treatment with UTP agonists or antagonists, is incorrect."}}, "note": "Like-named read-outs stand apart in the source and are kept apart here."}
{"molecule": "O=c1ccn([C@@H]2O[C@H](COP(=O)(O)OP(=O)(O)OP(=O)(O)O)C(O)[C@@H]2O)c(=O)[nH]1", "note": "(stereo partly shown) [UTP, Uridine 5-triphosphate]", "values": [{"measurement": "half-life", "setting": "[1]; blood (the circulation)", "result": "~20", "unit": "s"}, {"measurement": "time to peak", "setting": "[1]; in vivo", "result": 5, "unit": "s"}, {"measurement": "half-life", "setting": "[1]; in vivo", "result": 20, "unit": "s"}, {"measurement": "effect on infarct area", "setting": "[2]", "result": "increased the infarct area"}]}
